Results from paper PMC6268586, “Effect of Wine and Vinegar Processing of Rhizoma Corydalis on the Tissue Distribution of Tetrahydropalmatine, Protopine and Dehydrocorydaline in Rats” (Molecules, 2012).
Read-outs that look alike come from different tables or passages of the source.

Experiment: Tissue distribution of THP, DHC and protopine in rat tissues after gastric gavage administration (HPLC-UV, non-compartmental analysis)
Format: in vivo, Wistar male rats
Details: for AUC(0-t) / Cmax / MRT / Tmax: male, Wistar, po, 6.45 mg/kg; for AUC(0-t): read-out: AUC0–24 h of THP; for Cmax: read-out: Cmax of THP; for MRT: read-out: MRT of THP; for Tmax: read-out: Tmax of THP
Experimental: The experimental protocol was approved by the University's Animal Ethics Committee. […] Rats had unlimited access to water. Standard food was given until 12 h before the experiments. Rhizoma Corydalis was processed according to Pharmacopoeia of Chinese Medicine and National Guideline of Traditional Chinese Medicinal Plants Processing. Briefly, fresh Rhizoma Corydalis was boiled in water till the pith turn light brown color. Cooked rhizome was sliced into pieces (4 mm, diameter) and dried at 25 °C. Dried slices were mixed with edible vinegar (100:20, rhizome/vinegar, w/v) or yellow wine (100:10, rhizome/wine, w/v) and the slices allowed to completely absorb the vinegar or wine. The soaked slices were then stir-fried in a metallic pan over a low flame till they were completely dry. The processed Rhizoma Corydalis was added with 70% ethanol (1:30 w/v) and sonicated for 1 h at room temperature. The extract was then concentrated to remove the ethanol residue and stored at 4 °C for further use. […] The ethanol extract of the unprocessed Rhizoma Corydalis and THP, DHC and protopine pure compound were used as the controls. Three hundred and sixty healthy rats were used in total and are divided into six groups (Group 1-6, sixty rats per group). Drugs were administrated by gastric gavage method. In order to keep the dose of THP, DHC and protopine constant in each group, the amount of ethanol extract of Rhizoma Corydalis administrated was normalized based on the dose of protopine pure compound used. The dose of THP and DHC pure compound administrated was same with that in the ethanol extract of Rhizoma Corydalis. The details were listed below. […] Rats were administrated with the 70% ethanol extract of unprocessed Rhizoma Corydalis at a dose of 17.75 g extract/kg body weight. […] Rats received the extract of vinegar-processed Rhizoma Corydalis at a dose of 15 g extract/kg rat body weight. Group 3: Rats were administrated with the extract of wine processed Rhizoma Corydalis at a dose of 15.78 g extract/kg body weight. […] Rats received THP pure compound at a dose of 6.45 mg/kg body weight. Group 6: Rats were administrated 26.10 mg of DHC pure compound/kg body weight. […] Brian tissue was further dissected into six parts: cerebrum, cerebellum, diencephalons, brain stem, hippocampus and striatum. All the tissue samples were rinsed with ice-old saline and stored at -20 °C until extraction. Tissue samples were homogenized in three volumes of ice-cold biological saline and centrifuged for 10 min at 10,000 g and 4 °C. An aliquot of the supernatant (0.5 mL) was collected. Liquid-liquid extraction was used to extract THP, DHC and protopine. One hundred microliter of 1.0 μg/mL nuciferin (internal standard) was mixed with 0.5 mL aliquots of the supernatant. […] The supernatant was evaporated completely under the nitrogen stream in a 60 °C water bath. The residue was redissolved in 100 μL of methanol. A CoMetro HPLC system (CoMetro Technology Ltd, South […], NJ, USA) with 6000 PVW detector UV-VIS detector was used. […] Ltd., Liaoning, China). Other chromatographic conditions were: column temperature, 35 °C; mobile phase, acetonitrile-0.1% phosphoric acid (pH 3.0) (30:70 v/v); flow rate, 1 mL/min; wavelength, 280 nm. Pharmacokinetic parameters were estimated by non-compartmental analysis using Equiv Test/PK (Statistical Solutions Ltd., Saugus, MA, USA). The maximum concentration (Cmax) and the time to reach the maximum concentration (Tmax) were directly obtained from the observed value. All data were represented as mean ± SD. Comparison of values between groups was performed using one-way ANOVA followed by Tukey's test for comparisons among four groups.

Compound `COc1cc2c(cc1OC)[C@@H]1Cc3ccc(OC)c(OC)c3CN1CC2` [THP, tetrahydropalmatine] has an AUC(0-t) (rat brainstem) of 1490 ± 340 ng·h/mL, a Cmax (rat brainstem) of 370 ± 110 ng/mL and an MRT (rat brainstem) of 7.53 ± 0.26 h. For the same compound, the Tmax (rat brainstem) was 0.25 h, the AUC(0-t) (rat cerebellum) was 990 ± 220 ng·h/mL and the Cmax (rat cerebellum) was 150 ± 30 ng/mL. For the same compound, the MRT (rat cerebellum) was 9.2 ± 0.61 h, the Tmax (rat cerebellum) was 0.26 ± 0.02 h and the AUC(0-t) (rat cerebrum) was 860 ± 200 ng·h/mL. The Cmax (rat cerebrum) was 250 ± 72 ng/mL, the MRT (rat cerebrum) was 8 ± 0.25 h and the Tmax (rat cerebrum) was 0.26 ± 0.01 h. The AUC(0-t) (rat diencephalons) was 1670 ± 380 ng·h/mL, the Cmax (rat diencephalons) was 460 ± 130 ng/mL and the MRT (rat diencephalons) was 7.7 ± 0.28 h. The Tmax (rat diencephalons) was 0.27 ± 0.04 h, the AUC(0-t) (rat heart) was 1430 ± 320 ng·h/mL and the Cmax (rat heart) was 600 ± 180 ng/mL. It also gave an MRT (rat heart) of 4.83 ± 0.13 h, a Tmax (rat heart) of 0.25 h and an AUC(0-t) (rat hippocampus) of 1790 ± 400 ng·h/mL. For the same compound, the Cmax (rat hippocampus) was 470 ± 130 ng/mL, the MRT (rat hippocampus) was 7.04 ± 0.23 h and the Tmax (rat hippocampus) was 0.24 ± 0.05 h. The AUC(0-t) (rat kidney) was 6270 ± 1430 ng·h/mL, the Cmax (rat kidney) was 2050 ± 570 ng/mL and the MRT (rat kidney) was 4.37 ± 0.1 h. For the same compound, the Tmax (rat kidney) was 0.33 ± 0.09 h, the AUC(0-t) (rat liver) was 5570 ± 2600 ng·h/mL and the Cmax (rat liver) was 7840 ± 1740 ng/mL. It also gave an MRT (rat liver) of 3.99 ± 0.08 h, a Tmax (rat liver) of 0.21 ± 0.01 h and an AUC(0-t) (rat lung) of 5930 ± 1320 ng·h/mL. For the same compound, the Cmax (rat lung) was 1530 ± 450 ng/mL, the MRT (rat lung) was 5.34 ± 0.15 h and the Tmax (rat lung) was 0.26 ± 0.08 h. For the same compound, the AUC(0-t) (rat spleen) was 3270 ± 740 ng·h/mL, the Cmax (rat spleen) was 1540 ± 450 ng/mL and the MRT (rat spleen) was 4.34 ± 0.09 h. It also gave a Tmax (rat spleen) of 0.23 h, an AUC(0-t) (rat striatum) of 2470 ± 570 ng·h/mL and a Cmax (rat striatum) of 720 ± 210 ng/mL. For the same compound, the MRT (rat striatum) was 7.69 ± 0.26 h, the Tmax (rat striatum) was 0.21 ± 0.03 h and the “elimination of THP from the tissues” value (rat tissues) was “rarely found after 8 h”. For the same compound, the “time after administration at which THP was detected in all the tissues examined” value (rat tissues) was at most 5 min.
